Test systems include NCI/ADR-RES ovarian; A549 NSCLC; OVCAR-8 ovarian; SR leukemia; RPMI-8226 leukemia; SK-MEL-5 melanoma; HCT-15 colon; EKVX NSCLC; DU-145 prostate; MCF7 breast.
Assay in all cases: growth of human tumour cells (NCI), 48 h

Values joined by “and” are separate entries in the source; they are usually repeats but may differ in a detail not shown here. Equal entries are not always repeated.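 Results reflect a 48-hour exposure of cells in 96-well plates to compound at five concentrations. GI50 is the concentration that inhibits growth by half. TGI: concentration producing complete growth inhibition.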

Turning to `CCOC(=O)c1c2c(n(Cc3ccccc3)c1C)-c1nc(Cc3ccccc3)[nH]c1C(=O)C2=O`, the GI50 is 2.51 µM in the assay on NCI/ADR-RES ovarian; 2.5 µM in the assay on A549 NSCLC; 2.03 µM with OVCAR-8 ovarian; 1.65 µM in the assay with SR leukemia; 1.78 µM in the assay on RPMI-8226 leukemia; 1.69 µM in the assay on SK-MEL-5 melanoma. For the same molecule, the GI50 in the assay with HCT-15 colon is 1.59 µM; in the assay on EKVX NSCLC, 1.84 µM; in the assay with DU-145 prostate, 1.58 µM; with MCF7 breast it was 1.66 µM. The TGI was determined as 5.28 µM with NCI/ADR-RES ovarian; 7.15 µM in the assay on A549 NSCLC; 4.99 µM with OVCAR-8 ovarian; 4.02 µM in the assay with SR leukemia; 4.93 µM with RPMI-8226 leukemia; 3.06 µM with SK-MEL-5 melanoma. For the same molecule, the TGI in the assay on HCT-15 colon was determined as 2.94 µM; in the assay with EKVX NSCLC it was 3.27 µM; in the assay with DU-145 prostate, 2.92 µM; with MCF7 breast, 4.34 µM.
In the case of `CCCCCCCCCCCCCCCCCCNC(=O)OCC(CNS(=O)(=O)CCC[n+]1cccc2ccccc21)COC` (centres undefined), the TGI in the assay with NCI/ADR-RES ovarian was 34.2 µM; with A549 NSCLC, 25.9 µM; with OVCAR-8 ovarian, > 26.1 µM; in the assay with SR leukemia, > 100 µM; in the assay with RPMI-8226 leukemia it was > 100 µM; in the assay on SK-MEL-5 melanoma, 7.03 µM. Moreover, the TGI was 59.2 µM with HCT-15 colon, 65.7 µM with EKVX NSCLC, 34.3 µM in the assay on DU-145 prostate and 3.68 µM in the assay with MCF7 breast.
With `Nc1nc(N)nc(CC(=O)O)n1`, the TGI in the assay on NCI/ADR-RES ovarian, in the assay on A549 NSCLC, in the assay with OVCAR-8 ovarian, in the assay with SR leukemia, in the assay with RPMI-8226 leukemia and with SK-MEL-5 melanoma was > 100 µM each time. The TGI in the assay with HCT-15 colon, in the assay with EKVX NSCLC, in the assay with DU-145 prostate and in the assay on MCF7 breast was > 100 µM in each case.
As to `[N-]=[N+]=CC(=O)COC(=O)c1ccccc1`, the TGI in the assay with NCI/ADR-RES ovarian, in the assay with A549 NSCLC, in the assay on OVCAR-8 ovarian, in the assay with SR leukemia, with RPMI-8226 leukemia and with SK-MEL-5 melanoma was > 100 µM throughout. The TGI with HCT-15 colon, in the assay with EKVX NSCLC, in the assay on DU-145 prostate and with MCF7 breast was > 100 µM in each case.
For `CSc1nsc(S/C=C\C(=O)c2ccc(C)cc2)n1`, the GI50 in the assay on NCI/ADR-RES ovarian is 25.8 µM; in the assay with A549 NSCLC it was 35.1 µM; in the assay with OVCAR-8 ovarian, 22.5 µM; in the assay on SR leukemia it was 1.25 µM; in the assay on RPMI-8226 leukemia, 43 µM; with SK-MEL-5 melanoma it was 0.706 µM. The values for the GI50 in the assay with HCT-15 colon, in the assay with EKVX NSCLC and in the assay with DU-145 prostate were 11.9 µM, 22.5 µM and 20.5 µM, respectively. Further, the TGI was 67.7 µM in the assay with NCI/ADR-RES ovarian; > 90.5 µM in the assay on A549 NSCLC; 57.5 µM in the assay with OVCAR-8 ovarian; 5.61 µM with SR leukemia; > 100 µM with RPMI-8226 leukemia; 6.88 µM in the assay on SK-MEL-5 melanoma. The TGI was 25.3 µM with HCT-15 colon, 49.7 µM with EKVX NSCLC, > 49.5 µM with DU-145 prostate and 35.4 µM in the assay on MCF7 breast.
For `Oc1c(Cl)cc(Cl)cc1Sc1cc(Cl)cc(Cl)c1O`, the GI50 in the assay on NCI/ADR-RES ovarian was 2.92 µM and 2.74 µM; in the assay with A549 NSCLC, 3.37 µM and 3.03 µM; with OVCAR-8 ovarian, 3.28 µM and 2.85 µM; in the assay on SR leukemia, 3.09 µM and 4.96 µM; with RPMI-8226 leukemia it was 3.13 µM and 2.49 µM; in the assay on SK-MEL-5 melanoma, 1.84 µM and 1.74 µM. Moreover, the GI50 in the assay on HCT-15 colon was 3.44 µM and 3.06 µM; in the assay on EKVX NSCLC it was 3.8 µM and 2.51 µM; with DU-145 prostate it was 5.01 µM and 4.18 µM; in the assay on MCF7 breast, 3.06 µM and 2.88 µM. Further, the TGI in the assay with NCI/ADR-RES ovarian was 13.1 µM and 9.29 µM; in the assay with A549 NSCLC it was 11.9 µM and 10.6 µM; in the assay on OVCAR-8 ovarian, 12.6 µM and 11.4 µM; in the assay with SR leukemia it was 13.6 µM and > 100 µM; in the assay with RPMI-8226 leukemia, 8.93 µM and 16.8 µM; with SK-MEL-5 melanoma, 4.04 µM and 4.03 µM. In addition, the TGI with HCT-15 colon is 14.8 µM and 12.5 µM; in the assay on EKVX NSCLC, 14.1 µM and 9.1 µM; with DU-145 prostate, 20.8 µM and 15.5 µM; with MCF7 breast it was 10.5 µM and 10.2 µM.
Turning to `C[C@]12CC[C@@H](OC(=O)N(CCCl)N=O)C[C@@H]1CC[C@@H]1[C@@H]2CC[C@]2(C)C(=O)CC[C@@H]12`, the GI50 in the assay with NCI/ADR-RES ovarian is 4.88 µM; in the assay on A549 NSCLC, 0.73 µM; with OVCAR-8 ovarian it was 7.21 µM; with SR leukemia it was 0.0156 µM; in the assay on RPMI-8226 leukemia it was 14.8 µM; with SK-MEL-5 melanoma it was 3.93 µM. Further, the GI50 is 12.1 µM in the assay with HCT-15 colon, 6.5 µM in the assay on EKVX NSCLC, 0.671 µM with DU-145 prostate and 1.38 µM with MCF7 breast. For the same molecule, the TGI in the assay on NCI/ADR-RES ovarian is 30.2 µM; with A549 NSCLC, 4.69 µM; in the assay with OVCAR-8 ovarian it was 28.5 µM; in the assay with SR leukemia, 6.82 µM; in the assay on RPMI-8226 leukemia it was > 50.8 µM; with SK-MEL-5 melanoma, 19.5 µM. The TGI with HCT-15 colon is 32.4 µM; in the assay with EKVX NSCLC it was > 43.7 µM; with DU-145 prostate, 7.54 µM; in the assay on MCF7 breast, 19.2 µM.
On to `NNS(=O)(=O)c1cc(C(=O)O)cc(C(=O)O)c1`, for which the TGI in the assay with NCI/ADR-RES ovarian, in the assay on A549 NSCLC, in the assay on OVCAR-8 ovarian, with SR leukemia, with RPMI-8226 leukemia and in the assay on SK-MEL-5 melanoma was > 100 µM each time. Besides, the TGI in the assay on HCT-15 colon, in the assay on EKVX NSCLC, in the assay on DU-145 prostate and in the assay with MCF7 breast was > 100 µM each time.
With `O=C(Nc1ccc(Br)cc1)Nc1nn(C(=O)Nc2ccc(Br)cc2)c2ccccc12`, the GI50 with NCI/ADR-RES ovarian is 55.6 µM; in the assay with A549 NSCLC it was 51.5 µM; in the assay on OVCAR-8 ovarian it was 36.2 µM; with SR leukemia it was 30.5 µM; in the assay with RPMI-8226 leukemia, > 51.7 µM; in the assay on SK-MEL-5 melanoma it was > 100 µM. For the same molecule, the GI50 in the assay on HCT-15 colon was > 74.2 µM; in the assay on EKVX NSCLC, 40.3 µM; in the assay with DU-145 prostate, 28.9 µM; in the assay on MCF7 breast, 29.1 µM. In addition, the TGI in the assay with NCI/ADR-RES ovarian, with A549 NSCLC, with OVCAR-8 ovarian, in the assay on SR leukemia, in the assay with RPMI-8226 leukemia and with SK-MEL-5 melanoma was > 100 µM in each case. In addition, the TGI in the assay on HCT-15 colon, in the assay on EKVX NSCLC, in the assay on DU-145 prostate and with MCF7 breast was > 100 µM in each case.

The record behind these values is PubChem BioAssay (NCI).
